# Experimental data: ChEMBL document CHEMBL1128052, “Further structure-activity-relationship studies on A/C/D-ring analogs of complement inhibitor K-76” (Bioorg Med Chem Lett, 1995)
# How the values were obtained:
# [1] = Intrinsic Lytic Activity required to cause 50% hemolysis in the absence of complement; assay type: functional, Ovis aries
# Homo sapiens = species: Homo sapiens; experiment: Inhibitory concentration required to inhibit human complement induced hemolysis by 50%; assay type: functional, organism-based
# [2] = Intrinsic Lytic Activity required to cause 50% hemolysis in the absence of complement; Not bioassayed; assay type: functional, Ovis aries
SMILES,EC50 [1] [µM],IC50 (Homo sapiens) [µM],EC50 [2]
CC1=CCC([C@]2(C)Cc3c(Oc4ccccc4)cc(C(=O)O)cc3O2)CC1 (stereo partly specified),< 200,> 824,
CC1=CCC([C@]2(C)Cc3c(O)cc(C=O)cc3O2)CC1 (stereo partly specified),< 280,515,
COc1ccc(C(=O)O)c2c1C[C@@](C)(C1CC=C(C)CC1)O2 (stereo partly specified),,380,Not bioassayed
CC1=CCC([C@]2(C)Cc3c(O)cc(C(=O)O)cc3O2)CC1 (stereo partly specified),> 1040,730,
COc1ccc(C(=O)O)c2c1C[C@](C)(C1CC[C@](C)(O)[C@H](O)C1)O2 (stereo partly specified),,1600,Not bioassayed
C[C@@H]1CCC2C(C)(C)[C@H](O)[C@H](O)C[C@]2(C)[C@@]12Cc1c(O)cc(C(=O)O)c(C=O)c1O2 (stereo partly specified),> 680,680,
COc1cc(C=O)cc2c1C[C@@](C)(C1CC=C(C)CC1)O2 (stereo partly specified),> 1050,> 1050,
CC1=CCC([C@@]2(C)Cc3c(O)ccc(C(=O)O)c3O2)CC1 (stereo partly specified),,2100,Not bioassayed
COc1ccc(C(=O)O)c2c1C[C@](C)(C1CC=C(C)CC1)O2 (stereo partly specified),,680,Not bioassayed
CC1=CCC([C@]2(C)Cc3c(Oc4ccccc4)cc(C=O)cc3O2)CC1 (stereo partly specified),> 862,> 862,
COc1cc(C(=O)O)cc2c1C[C@@](C)(C1CC=C(C)CC1)O2 (stereo partly specified),660,> 1000,
COc1cc(C(=O)O)cc2c1CC(C)(C1CC[C@](C)(O)[C@H](O)C1)O2 (stereo partly specified),> 892,> 892,
CC1=CCC([C@]2(C)Cc3c(O)ccc(C(=O)O)c3O2)CC1 (stereo partly specified),,2400,Not bioassayed
